SMILES strings stand for the structures. Converted amounts (≈) assume the structure as drawn.

For the data set the following is noted: buffer; pH 7.4; 200.0 µM.
As to `CC(C)C(NC(=O)C1CC(=O)N(Cc2ccccc2)C1)c1nc2ccccc2[nH]1` (configuration not stated), the solubility (kinetic) was more than 0.0586 mg/mL.
Then `CCOC(=O)c1nc(-c2ccc(OC)c(OC)c2)no1`, with 0.0408 mg/mL (≈ 147 µM); and `CC(=O)C1=C(O)CCCC1=NCc1nc2ccccc2[nH]1`, with more than 0.0425 mg/mL; and `CC1CCN(C(=O)COc2ncnc3ccccc23)CC1`, with 0.0357 mg/mL (≈ 125 µM).
Compound `CCOC(=O)/C=C1/N(C)c2ccccc2C1(C)C` gave a kinetic solubility of less than 0.0005 mg/mL.
In turn, `CCC(C)c1ccccc1NC(=O)COC(=O)C1=NN(c2ccccc2)C(=O)CC1` (configuration not stated) registered a solubility (kinetic) of more than 0.0611 mg/mL.
As to `Cc1cnc(NC(=O)Cc2ccc(S(=O)(=O)N3CCOCC3)s2)s1`, the solubility (kinetic) came to 0.0197 mg/mL (≈ 50.8 µM).
For `O=c1c2[nH]cnc2n(-c2ccccc2)c(=O)n1Cc1ccccc1`, the solubility (kinetic) was 0.0351 mg/mL (≈ 110 µM).
As to `COC(=O)C(Cc1c[nH]c2ccccc12)N1CCS(=O)(=O)CC1` (configuration not stated), the solubility (kinetic) is more than 0.0505 mg/mL.
In the case of `CCOC(=O)C1CCCN(C(=O)c2[nH]c3ccc(OC)cc3c2C)C1` (configuration not stated), the solubility (kinetic) was more than 0.0517 mg/mL.
For `Cc1ccc(OC(=O)Nc2ccccc2)cc1`, the kinetic solubility came to 0.0178 mg/mL (≈ 78.3 µM).
For the compound `CCOC(=O)N1CCN(C(=O)c2cc3ccccc3o2)CC1`, the kinetic solubility was more than 0.0453 mg/mL.
Then `Cc1ccsc1C(=O)NCc1ccccc1Cl`, with more than 0.0399 mg/mL.
`CCc1ccc(OCC(O)CN2CCCC2)cc1.Cl` (configuration not stated) came in with a solubility (kinetic) of 0.0398 mg/mL.
Turning to `COc1ccc(/C=C2/N=C(SC)NC2=O)cc1OC`, the kinetic solubility was found to be 0.0101 mg/mL (≈ 36.3 µM).
As for `CCOC(=O)N1CCN(Cc2ccc(O)c3ncccc23)CC1`, the figure is 0.0343 mg/mL (≈ 109 µM); as for `Fc1cccc(Cl)c1CSC1=NCCS1`, 0.0023 mg/mL (≈ 8.79 µM).
The compound `COC(=O)c1ccc(N2CCN(C(C)=O)CC2)c(NC(=O)c2cccnc2)c1` had a kinetic solubility of more than 0.0574 mg/mL.
`Nc1nc(SCC(=O)Nc2ccc([N+](=O)[O-])cc2)n[nH]1`: the solubility (kinetic) was more than 0.0441 mg/mL.
For `COC(=O)c1ccc(CNC(=O)COC(=O)CCC(=O)c2ccc(F)cc2)cc1`, the solubility (kinetic) was 0.0055 mg/mL (≈ 13.7 µM).
As for `COc1ccc2c(c1)CCc1c-2nc2ccccc2c1N1CCOCC1`, the figure is 0.0055 mg/mL (≈ 15.9 µM); as for `NCCc1c[nH]c2ccc(OCc3ccccc3)cc12`, 0.0078 mg/mL (≈ 29.3 µM).
Consider `COc1ccccc1CNC(=O)c1ccc(C)s1`, for which the kinetic solubility is more than 0.0392 mg/mL.
In turn, `CC(=O)Nc1ccc(CN2CCCN(C)CC2)cc1` came in with a solubility (kinetic) of 0.0292 mg/mL (≈ 112 µM).
As for `O=c1cc(O)nc[nH]1`, the kinetic solubility is more than 0.0168 mg/mL.
As for `COc1ccc(CNCc2cccn2C)cc1.Cl`, the kinetic solubility is more than 0.04 mg/mL.
Consider `CCOC(=O)c1ccc2[nH]c3c(c2c1)CCCC3`, for which the kinetic solubility came out at 0.0055 mg/mL (≈ 22.6 µM).
Turning to `Cc1nc([N+](=O)[O-])cn1CC(O)c1ccc(F)cc1` (configuration not stated), the kinetic solubility was more than 0.0398 mg/mL.
The compound `O=C(Cc1ccc(Cl)c(Cl)c1)NC1CCCCCC1` registered a solubility (kinetic) of 0.0032 mg/mL (≈ 10.7 µM).
The compound `O=C1Nc2ccccc2CCc2ccccc21` gave a kinetic solubility of more than 0.0335 mg/mL.
Compound `O=[N+]([O-])/C=C1\NCCN1Cc1ccc(Cl)nc1` came in with a kinetic solubility of 0.0358 mg/mL (≈ 141 µM).
As for `CCN(CC)c1ccc(CNCCc2ccccc2F)cc1.Cl`, the figure is more than 0.0505 mg/mL.
Take `O=C(CC1SCCNC1=O)Nc1ccccc1Cl` (configuration not stated): the kinetic solubility was 0.0386 mg/mL (≈ 136 µM).
For `CCOC(=O)c1c(-c2ccc(C)cc2)csc1/N=C/N(C)C`, the kinetic solubility is more than 0.0475 mg/mL.
With `CCOc1ccc(NC(=O)CNC(=O)Cc2ccccc2)cc1`, the kinetic solubility was found to be 0.0044 mg/mL (≈ 14.1 µM).
On to `CC1(C)Cc2cccc(C(=O)NCc3ccco3)c2O1`, for which the solubility (kinetic) is 0.0329 mg/mL (≈ 121 µM).
`COc1ccc(NC(=O)c2cc3ccccc3[nH]2)cc1` came in with a solubility (kinetic) of 0.0015 mg/mL (≈ 5.63 µM).
For the compound `Cc1ccsc1CN(C)CC(=O)Nc1ccccc1C(=O)NC1CC1`, the solubility (kinetic) is more than 0.0536 mg/mL.
Regarding `O=C(O)c1cccnc1SCc1cccc(Br)c1`, the kinetic solubility is more than 0.0486 mg/mL.
With `COC(=O)c1ccc(COc2cccnc2[N+](=O)[O-])cc1`, the kinetic solubility came out at 0.0042 mg/mL (≈ 14.6 µM).
Take `O=C(O)c1cc2c(cn1)[nH]c1ccccc12`: the solubility (kinetic) was more than 0.0318 mg/mL.
For the compound `CC(=NCc1ccc2c(c1)OCO2)c1c(O)n(-c2ccccc2)c(=O)[nH]c1=O`, the solubility (kinetic) was found to be 0.0066 mg/mL (≈ 17.4 µM).
Consider `CC1CCCCN1C(=O)CNCC1CCCO1.O=C(O)C(=O)O` (configuration not stated), for which the solubility (kinetic) was more than 0.0496 mg/mL.
The compound `COC(=O)c1[nH]c2ccccc2c1Sc1ccccc1` displayed a solubility (kinetic) of 0.0009 mg/mL (≈ 3.18 µM).
`COC(=O)c1ccc(SCc2ccccc2)nc1` showed a solubility (kinetic) of 0.0031 mg/mL (≈ 12 µM).
The compound `Cc1ccc(CNC(=O)CCCc2cn(C)c3ccccc23)cc1` came in with a kinetic solubility of 0.0004 mg/mL (≈ 1.25 µM).
Then `Nc1nc(NCCO)nc(NCc2ccccc2)c1[N+](=O)[O-]`, with 0.0156 mg/mL (≈ 51.3 µM); and `O=C(Cc1ccc(Cl)cc1Cl)Nc1ccncc1`, with 0.031 mg/mL (≈ 110 µM); and `CCOc1ccc2oc(C(=O)N3CCCN(C)CC3)c(C)c2c1.Cl`, with more than 0.0529 mg/mL.
As for `COc1ccc(OCCSc2ncc(CO)n2C)cc1`, the figure is more than 0.0442 mg/mL; as for `CC(=O)NC1C(=O)N(Cc2ccccc2)c2ccc(Br)cc21` (configuration not stated), 0.018 mg/mL (≈ 50.1 µM); as for `COc1cc(Br)ccc1NC(=O)c1ccccc1-c1ccccc1C(=O)O`, 0.0533 mg/mL (≈ 125 µM).

Broadly, the kinetic solubility is solubility judged after dilution from a stock solution rather than from solid.

The values above are taken from PubChem BioAssay AID1996.
